Results published in patent US11306092B2, “Amino indole compounds useful as TLR inhibitors” (BRISTOL-MYERS SQUIBB COMPANY, priority 2017, dated 2022).

What was measured:
Assay type in all cases: cell-based
[1] = biological target: T1, human TLR7 (Homo sapiens, UniProt Q9NYK1); assay: TLR7 inhibition reporter assay (HEK-Blue SEAP reporter); conditions: HEK-Blue cells overexpressing human TLR7; gardiquimod 7.5 μM; 22 hour incubation
T1 construct: host or cells: HEK-Blue cells
T1 sequence (Q9NYK1 27-1049): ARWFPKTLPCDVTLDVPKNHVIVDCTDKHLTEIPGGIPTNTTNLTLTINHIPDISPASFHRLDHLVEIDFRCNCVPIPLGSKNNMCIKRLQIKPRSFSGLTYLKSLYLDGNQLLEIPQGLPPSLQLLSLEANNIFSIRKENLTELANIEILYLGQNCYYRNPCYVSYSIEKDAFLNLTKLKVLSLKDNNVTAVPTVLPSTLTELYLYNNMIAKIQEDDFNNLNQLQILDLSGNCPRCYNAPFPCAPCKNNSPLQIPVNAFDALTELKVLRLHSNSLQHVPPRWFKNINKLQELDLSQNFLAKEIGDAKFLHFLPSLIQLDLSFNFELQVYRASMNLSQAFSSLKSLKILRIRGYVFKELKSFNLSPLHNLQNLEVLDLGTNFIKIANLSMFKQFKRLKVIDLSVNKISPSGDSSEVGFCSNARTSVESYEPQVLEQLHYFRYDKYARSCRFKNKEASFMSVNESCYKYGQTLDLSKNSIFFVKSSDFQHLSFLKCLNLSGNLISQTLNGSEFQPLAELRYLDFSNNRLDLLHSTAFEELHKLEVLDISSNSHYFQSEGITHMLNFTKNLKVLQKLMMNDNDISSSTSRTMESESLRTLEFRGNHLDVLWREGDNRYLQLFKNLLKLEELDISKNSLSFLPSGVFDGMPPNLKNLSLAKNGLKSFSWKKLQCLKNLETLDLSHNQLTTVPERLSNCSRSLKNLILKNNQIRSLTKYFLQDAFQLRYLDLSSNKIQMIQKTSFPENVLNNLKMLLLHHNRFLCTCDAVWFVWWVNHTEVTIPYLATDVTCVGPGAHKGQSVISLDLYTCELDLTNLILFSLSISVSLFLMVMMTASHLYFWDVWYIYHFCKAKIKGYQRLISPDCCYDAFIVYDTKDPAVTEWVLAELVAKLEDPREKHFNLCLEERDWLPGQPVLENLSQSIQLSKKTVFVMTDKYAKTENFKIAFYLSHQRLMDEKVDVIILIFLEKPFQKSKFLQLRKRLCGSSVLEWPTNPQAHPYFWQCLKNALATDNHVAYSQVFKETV
Method in brief: (§1)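 HEK-Blue cells overexpressing human TLR7, TLR8 or TLR9 carry a SEAP reporter driven by NF-κB/AP-1 sites. Compounds (0.05 nM–50 μM) were preincubated 30 min at room temperature, then cells were stimulated with gardiquimod 7.5 μM (TLR7), R848 15.9 μM (TLR8) or ODN2006 5 nM (TLR9) for 22 h at 37 °C.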

[2] = biological target: T2, human TLR9 (Homo sapiens, UniProt Q9NR96); assay: TLR9 inhibition reporter assay (HEK-Blue SEAP reporter); conditions: HEK-Blue cells overexpressing human TLR9; ODN2006 5 nM; 22 hour incubation
T2 construct: host or cells: HEK-Blue cells
T2 sequence (Q9NR96 26-1032): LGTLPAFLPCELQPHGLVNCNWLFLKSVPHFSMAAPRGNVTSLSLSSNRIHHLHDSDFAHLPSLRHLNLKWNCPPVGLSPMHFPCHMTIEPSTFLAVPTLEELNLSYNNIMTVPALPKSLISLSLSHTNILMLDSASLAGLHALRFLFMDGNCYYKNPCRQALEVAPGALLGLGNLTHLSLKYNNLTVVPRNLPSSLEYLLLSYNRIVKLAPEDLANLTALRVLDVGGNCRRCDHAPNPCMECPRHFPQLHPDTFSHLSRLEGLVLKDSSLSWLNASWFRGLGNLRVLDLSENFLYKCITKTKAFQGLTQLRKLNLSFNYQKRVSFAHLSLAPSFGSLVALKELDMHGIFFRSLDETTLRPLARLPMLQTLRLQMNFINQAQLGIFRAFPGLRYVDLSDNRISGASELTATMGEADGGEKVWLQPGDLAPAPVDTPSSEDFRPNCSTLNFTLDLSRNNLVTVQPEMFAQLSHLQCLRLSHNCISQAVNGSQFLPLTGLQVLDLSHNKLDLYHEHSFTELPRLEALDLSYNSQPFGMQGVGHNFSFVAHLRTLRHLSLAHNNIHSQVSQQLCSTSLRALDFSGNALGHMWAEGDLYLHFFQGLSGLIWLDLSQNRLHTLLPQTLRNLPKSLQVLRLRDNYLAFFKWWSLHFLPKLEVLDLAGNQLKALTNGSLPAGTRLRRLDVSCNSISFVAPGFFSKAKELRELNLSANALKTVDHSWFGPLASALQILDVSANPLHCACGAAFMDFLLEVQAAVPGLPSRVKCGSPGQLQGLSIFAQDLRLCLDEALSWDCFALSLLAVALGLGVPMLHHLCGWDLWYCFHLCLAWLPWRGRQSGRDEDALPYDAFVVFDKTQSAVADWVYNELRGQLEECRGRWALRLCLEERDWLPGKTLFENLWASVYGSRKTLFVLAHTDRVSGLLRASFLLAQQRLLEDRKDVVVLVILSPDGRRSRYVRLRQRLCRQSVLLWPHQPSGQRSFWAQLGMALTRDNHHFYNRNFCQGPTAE
Method in brief: as §1

[3] = biological target: T3, human TLR8 (Homo sapiens, UniProt Q9NR97); assay: TLR8 inhibition reporter assay (HEK-Blue SEAP reporter); conditions: HEK-Blue cells overexpressing human TLR8; R848 15.9 μM; 22 hour incubation
T3 construct: host or cells: HEK-Blue cells
T3 sequence (Q9NR97 27-1041): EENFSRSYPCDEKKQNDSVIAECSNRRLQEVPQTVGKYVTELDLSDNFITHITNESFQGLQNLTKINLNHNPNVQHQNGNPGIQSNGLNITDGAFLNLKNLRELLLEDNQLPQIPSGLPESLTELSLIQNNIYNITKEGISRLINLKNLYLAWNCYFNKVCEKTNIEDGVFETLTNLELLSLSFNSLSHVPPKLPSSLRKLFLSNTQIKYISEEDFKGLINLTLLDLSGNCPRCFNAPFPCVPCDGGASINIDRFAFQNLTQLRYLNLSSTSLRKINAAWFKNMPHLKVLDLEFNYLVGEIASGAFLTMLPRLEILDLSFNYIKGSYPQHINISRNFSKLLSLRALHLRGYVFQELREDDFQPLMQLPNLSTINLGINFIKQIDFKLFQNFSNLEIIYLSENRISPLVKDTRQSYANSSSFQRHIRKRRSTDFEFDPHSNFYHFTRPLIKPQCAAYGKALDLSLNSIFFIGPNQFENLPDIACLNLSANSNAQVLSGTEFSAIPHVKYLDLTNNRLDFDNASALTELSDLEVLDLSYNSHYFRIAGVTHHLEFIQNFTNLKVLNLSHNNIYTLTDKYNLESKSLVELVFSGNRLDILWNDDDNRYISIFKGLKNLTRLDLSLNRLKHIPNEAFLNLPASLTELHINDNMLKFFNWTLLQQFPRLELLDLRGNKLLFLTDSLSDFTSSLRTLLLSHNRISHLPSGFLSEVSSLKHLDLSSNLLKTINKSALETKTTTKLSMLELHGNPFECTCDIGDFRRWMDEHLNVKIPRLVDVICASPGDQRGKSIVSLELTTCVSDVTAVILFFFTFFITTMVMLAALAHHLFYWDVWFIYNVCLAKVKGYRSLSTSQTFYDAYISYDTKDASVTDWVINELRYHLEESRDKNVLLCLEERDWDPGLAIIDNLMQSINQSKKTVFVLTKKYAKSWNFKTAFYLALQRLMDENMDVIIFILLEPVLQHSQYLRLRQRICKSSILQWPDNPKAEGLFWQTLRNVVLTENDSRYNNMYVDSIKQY
Method in brief: as §1

**Q.** Which IC50 [1] does the source give for CCc1c(-c2ccc(OC)c(OC)c2)[nH]c2cc(C)c(N3CCC4(CC3)CCN(C(C)C)CC4)cc12 [Example 186, 3-(2-(3,4-dimethoxyphenyl)-3-ethyl-6-methyl-1H-indol-5-yl)-9-isopropyl-3,9-diazaspiro[5.5]undecane] here?
**A.** 1210 nM

**Q.** What about the IC50 [2] of the same compound?
**A.** 2850 nM

**Q.** What about the IC50 [3] of the same compound?
**A.** 1590 nM

**Q.** CCc1c(-c2ccc(OC)c(OC)c2)[nH]c2cc(C)c(N3CCN(CCNC)CC3)cc12 [Example 144, 2-(4-(2-(3,4-dimethoxyphenyl)-3-ethyl-6-methyl-1H-indol-5-yl)piperazin-1-yl)-N-methylethan-1-amine] was tested. Which IC50 [1] did it give?
**A.** 45 nM

**Q.** What about the IC50 [2] of the same compound?
**A.** 952 nM

**Q.** And the IC50 [3]?
**A.** 45 nM

**Q.** CCc1c(-c2ccc(OC)c(OC)c2)[nH]c2cc(C(C)C)c(N3CCN(C4CCN(C(C)C)CC4)CC3)cc12 [Example 69, 2-(3,4-dimethoxyphenyl)-3-ethyl-6-isopropyl-5-(4-(1-isopropylpiperidin-4-yl)piperazin-1-yl)-1H-indole] was tested. Which IC50 [1] did it give?
**A.** 1160 nM

**Q.** And the IC50 [2]?
**A.** 2610 nM

**Q.** What about the IC50 [3] of the same compound?
**A.** 14300 nM

**Q.** For CCc1c(-c2ccc(OC)c(OC)c2)[nH]c2ccc(N3CCN(C4CCN(CC(C)C)CC4)CC3)cc12 [Example 177, 2-(3,4-dimethoxyphenyl)-3-ethyl-5-(4-(1-isobutylpiperidin-4-yl)piperazin-1-yl)-1H-indole], which IC50 [1] is on record?
**A.** 166 nM

**Q.** And the IC50 [2]?
**A.** 1540 nM

**Q.** What about the IC50 [3] of the same compound?
**A.** 11 nM

**Q.** Which results are given for COc1ccc(-c2[nH]c3ccc(NC(=O)[C@@H](N)c4ccccc4)cc3c2C(C)C)cc1OC [Example 25, (S)-2-amino-N-(2-(3,4-dimethoxyphenyl)-3-isopropyl-1H-indol-5-yl)-2-phenylacetamide]?
**A.** IC50 [1]: 621 nM; IC50 [2]: > 50000 nM; IC50 [3]: 101 nM

**Q.** With CCc1c(-c2ccc(OC)c(OC)c2)[nH]c2ccc(N3CCN(C4CCN(C)CC4)CC3)cc12 [Example 154, 2-(3,4-dimethoxyphenyl)-3-ethyl-5-(4-(1-methylpiperidin-4-yl)piperazin-1-yl)-1H-indole] as the compound, how does the IC50 [1] read?
**A.** 79 nM

**Q.** What about the IC50 [2] of the same compound?
**A.** 829 nM

**Q.** And the IC50 [3]?
**A.** 14 nM

**Q.** Which results are given for COc1ccc(-c2[nH]c3ccc(N4CCN(C5CCCN(C(C)C)CC5)CC4)cc3c2C(C)C)cc1OC (stereo not drawn) [Example 122, 2-(3,4-dimethoxyphenyl)-3-isopropyl-5-(4-(1-isopropylazepan-4-yl)piperazin-1-yl)-1H-indole]?
**A.** IC50 [1]: 42 nM; IC50 [2]: 621 nM; IC50 [3]: 3.4 nM

**Q.** For COc1ccc(-c2[nH]c3ccc(N4CCC(N5CCN(C(C)(C)C)CC5)CC4)cc3c2C(C)C)cc1OC [Example 90, 5-(4-(4-(tert-butyl)piperazin-1-yl)piperidin-1-yl)-2-(3,4-dimethoxyphenyl)-3-isopropyl-1H-indole], which IC50 [1] is on record?
**A.** 37 nM

**Q.** What about the IC50 [2] of the same compound?
**A.** 809 nM

**Q.** What about the IC50 [3] of the same compound?
**A.** 19 nM

**Q.** For COc1ccc(-c2[nH]c3ccc(N4CCC(N5CCN(C6CCN(C)CC6)CC5)CC4)cc3c2C(C)C)cc1OC [Example 99, 2-(3,4-dimethoxyphenyl)-3-isopropyl-5-(4-(4-(1-methylpiperidin-4-yl)piperazin-1-yl)piperidin-1-yl)-1H-indole], which IC50 [1] is on record?
**A.** 11 nM

**Q.** What about the IC50 [2] of the same compound?
**A.** 538 nM

**Q.** And the IC50 [3]?
**A.** 62 nM

**Q.** Which results are given for COc1ccc(-c2[nH]c3ccc(NC4CCC(NC5CCN(C)CC5)CC4)cc3c2C(C)C)cc1OC (single isomer, unassigned) [Example 40, N1-(2-(3,4-dimethoxyphenyl)-3-isopropyl-1H-indol-5-yl)-N4-(1-methylpiperidin-4-yl)cyclohexane-1,4-diamine]?
**A.** IC50 [1]: 43 nM; IC50 [2]: 570 nM; IC50 [3]: 171 nM

**Q.** COc1ccc(-c2[nH]c3ccc(NC4CC(C)(C)N(C)C(C)(C)C4)cc3c2C(C)C)cc1OC [Example 103, 2-(3,4-dimethoxyphenyl)-3-isopropyl-N-(1,2,2,6,6-pentamethylpiperidin-4-yl)-1H-indol-5-amine] was tested. Which IC50 [1] did it give?
**A.** 1120 nM

**Q.** What about the IC50 [2] of the same compound?
**A.** 2670 nM

**Q.** What about the IC50 [3] of the same compound?
**A.** 8.2 nM

**Q.** COc1ccc(-c2[nH]c3ccc(N4CCC(OC5CCNCC5)CC4)cc3c2C(C)C)cc1OC [Example 133, 2-(3,4-dimethoxyphenyl)-3-isopropyl-5-(4-(piperidin-4-yloxy)piperidin-1-yl)-1H-indole] was tested. Which IC50 [1] did it give?
**A.** 16 nM

**Q.** And the IC50 [2]?
**A.** 339 nM

**Q.** And the IC50 [3]?
**A.** 55 nM

**Q.** With COc1ccc(-c2[nH]c3ccc(N4CCC(NCCN5CCOCC5)CC4)cc3c2C(C)C)cc1OC [Example 86, 1-(2-(3,4-dimethoxyphenyl)-3-isopropyl-1H-indol-5-yl)-N-(2-morpholinoethyl)piperidin-4-amine] as the compound, how does the IC50 [1] read?
**A.** 41 nM

**Q.** What about the IC50 [2] of the same compound?
**A.** 2800 nM

**Q.** What about the IC50 [3] of the same compound?
**A.** 4.8 nM

**Q.** How did the IC50 [1] turn out when COc1ccc(-c2[nH]c3ccc(N4CCC(NCCCN(C)C)CC4)cc3c2C(C)C)cc1OC [Example 77, N1-(1-(2-(3,4-dimethoxyphenyl)-3-isopropyl-H-indol-5-yl)piperidin-4-yl)-N3,N3-dimethylpropane-1,3-diamine] was run?
**A.** 61 nM

**Q.** What about the IC50 [2] of the same compound?
**A.** 1980 nM

**Q.** What about the IC50 [3] of the same compound?
**A.** 9.6 nM

**Q.** Which results are given for CNCCNC1CCN(c2ccc3[nH]c(-c4ccc(OC)c(OC)c4)c(C(C)C)c3c2)CC1 [Example 72, N1-(1-(2-(3,4-dimethoxyphenyl)-3-isopropyl-1H-indol-5-yl)piperidin-4-yl)-N2-methylethane-1,2-diamine]?
**A.** IC50 [1]: 15 nM; IC50 [2]: 1390 nM; IC50 [3]: 2.8 nM
